From ChEMBL document CHEMBL4715821, “Discovery of 4-ethoxy-7H-pyrrolo[2,3-d]pyrimidin-2-amines as potent, selective and orally bioavailable LRRK2 inhibitors” (Bioorg Med Chem Lett, 2018)

Tests used:
[1] = molecular target: Casein kinase II subunit alpha (Homo sapiens) (UniProt P68400); experiment: Inhibition of CK2alpha (unknown origin) assessed as residual activity at 1 uM by Kinomescan method relative to control
[2] = molecular target: Tyrosine-protein kinase JAK2 (Homo sapiens) (UniProt O60674); experiment: Inhibition of wild-type human partial length JAK2 JH1 catalytic domain (A829 to G1132 residues) expressed in mammalian expression system assessed as residual activity at 1 uM by Kinomescan method relative to control
[3] = molecular target: MAP kinase-activated protein kinase 5 (Homo sapiens) (UniProt Q8IW41); experiment: Inhibition of wild-type human partial length MAPKAPK5 (M1 to D322 residues) expressed in mammalian expression system assessed as residual activity at 1 uM by Kinomescan method relative to control
[4] = molecular target: Calcium/calmodulin-dependent protein kinase type II subunit delta (Homo sapiens) (UniProt Q13557); experiment: Inhibition of wild-type human partial length CAMK2D (M1 to E329 residues) expressed in bacterial expression system assessed as residual activity at 1 uM by Kinomescan method relative to control
[5] = molecular target: G protein-coupled receptor kinase 4 (Homo sapiens) (UniProt P32298); experiment: Inhibition of wild type human full length GRK4 (M1 to C578 residues) expressed in bacterial expression system assessed as residual activity at 1 uM by Kinomescan method relative to control
[6] = molecular target: Platelet-derived growth factor receptor alpha (Homo sapiens) (UniProt P16234); experiment: Inhibition of wild-type human partial length PDGFRA (V575 to D1002 residues) expressed in mammalian expression system assessed as residual activity at 1 uM by Kinomescan method relative to control
[7] = molecular target: Dual specificity mitogen-activated protein kinase kinase 1 (Homo sapiens) (UniProt Q02750); experiment: Inhibition of wild-type human full length MEK1 (M1 to V393 residues) expressed in mammalian expression system assessed as residual activity at 1 uM by Kinomescan method relative to control
Dual specificity mitogen-activated protein kinase kinase 1 (Homo sapiens), sequence (Q02750 whole entry, the tested form may be a part): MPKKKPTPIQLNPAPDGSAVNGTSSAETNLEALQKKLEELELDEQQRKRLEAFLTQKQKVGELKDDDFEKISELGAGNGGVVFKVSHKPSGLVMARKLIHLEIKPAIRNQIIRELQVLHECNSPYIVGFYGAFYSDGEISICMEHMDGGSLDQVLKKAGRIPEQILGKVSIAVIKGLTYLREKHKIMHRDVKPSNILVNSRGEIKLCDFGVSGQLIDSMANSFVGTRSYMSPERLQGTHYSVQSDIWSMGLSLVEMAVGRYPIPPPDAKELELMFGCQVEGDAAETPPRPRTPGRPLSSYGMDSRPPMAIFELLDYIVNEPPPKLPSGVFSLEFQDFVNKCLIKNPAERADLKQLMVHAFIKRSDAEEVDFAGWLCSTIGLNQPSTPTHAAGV

[8] = molecular target: Serine/threonine-protein kinase MARK1 (Homo sapiens) (UniProt Q9P0L2); experiment: Inhibition of wild-type human partial length MARK1 (Q30 to T341 residues) expressed in bacterial expression system assessed as residual activity at 1 uM by Kinomescan method relative to control
[9] = molecular target: Serine/threonine-protein kinase Nek4 (Homo sapiens) (UniProt P51957); experiment: Inhibition of wild-type human full length NEK4 (M1 to F841 residues) expressed in mammalian expression system assessed as residual activity at 1 uM by Kinomescan method relative to control
Serine/threonine-protein kinase Nek4 (Homo sapiens), sequence (P51957 whole entry, looked up, the tested form may be a part): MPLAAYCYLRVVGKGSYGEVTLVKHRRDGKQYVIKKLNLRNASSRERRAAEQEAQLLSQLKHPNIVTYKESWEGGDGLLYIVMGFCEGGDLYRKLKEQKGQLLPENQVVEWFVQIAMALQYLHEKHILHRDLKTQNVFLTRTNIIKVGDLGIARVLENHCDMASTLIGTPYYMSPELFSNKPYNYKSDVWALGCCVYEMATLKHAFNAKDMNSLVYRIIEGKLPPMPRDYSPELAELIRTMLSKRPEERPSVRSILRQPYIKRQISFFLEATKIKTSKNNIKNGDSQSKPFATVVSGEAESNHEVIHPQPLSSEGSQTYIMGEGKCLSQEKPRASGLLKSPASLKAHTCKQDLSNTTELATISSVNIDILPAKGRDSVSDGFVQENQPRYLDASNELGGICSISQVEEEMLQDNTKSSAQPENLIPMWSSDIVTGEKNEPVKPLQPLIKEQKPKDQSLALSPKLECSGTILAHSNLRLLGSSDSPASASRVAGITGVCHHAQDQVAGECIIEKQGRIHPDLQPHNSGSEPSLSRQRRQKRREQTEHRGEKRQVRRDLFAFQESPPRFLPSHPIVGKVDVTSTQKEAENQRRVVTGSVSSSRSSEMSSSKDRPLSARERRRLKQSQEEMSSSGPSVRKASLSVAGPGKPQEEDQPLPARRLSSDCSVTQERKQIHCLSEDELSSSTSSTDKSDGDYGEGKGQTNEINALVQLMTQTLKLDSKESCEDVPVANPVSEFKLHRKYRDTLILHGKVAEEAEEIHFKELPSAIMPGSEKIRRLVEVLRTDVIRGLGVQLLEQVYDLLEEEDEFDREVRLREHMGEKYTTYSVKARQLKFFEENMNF

Cytochrome P450 3A4 = Cytochrome P450 3A4 (Homo sapiens, UniProt P08684); experiment: Inhibition of human CYP3A4; assay type: ADME
[10] = molecular target: Serine/threonine-protein kinase Sgk2 (Homo sapiens) (UniProt Q9HBY8); experiment: Inhibition of wild-type human partial length SGK2 (L54 to C427 residues) expressed in mammalian expression system assessed as residual activity at 1 uM by Kinomescan method relative to control
[11] = molecular target: Dual specificity testis-specific protein kinase 1 (Homo sapiens) (UniProt Q15569); experiment: Inhibition of wild-type human full length TESK1 (R37 to S626 residues) expressed in bacterial expression system assessed as residual activity at 1 uM by Kinomescan method relative to control
[12] = Artificial membrane permeability by PAMPA method; assay type: ADME; details: read-out: permeability
[13] = molecular target: Protein kinase C zeta type (Homo sapiens) (UniProt Q05513); experiment: Inhibition of PKCzeta (unknown origin) assessed as residual activity at 1 uM by Kinomescan method relative to control
[14] = molecular target: TRAF2 and NCK-interacting protein kinase (Homo sapiens) (UniProt Q9UKE5); experiment: Inhibition of wild-type human partial length TNIK (D4 to K311 residues) expressed in bacterial expression system assessed as residual activity at 1 uM by Kinomescan method relative to control
[15] = molecular target: Serine/threonine-protein kinase LATS1 (Homo sapiens) (UniProt O95835); experiment: Inhibition of wild-type human partial length LATS1 (Q678 to V1130 residues) expressed in bacterial expression system assessed as residual activity at 1 uM by Kinomescan method relative to control
[16] = Unbound fraction in mouse blood; assay type: ADME, tissue-based
[17] = molecular target: Death-associated protein kinase 2 (Homo sapiens) (UniProt Q9UIK4); experiment: Inhibition of wild type human full length DAPK2 (M1 to S370 residues) expressed in bacterial expression system assessed as residual activity at 1 uM by Kinomescan method relative to control
[18] = molecular target: Leucine-rich repeat serine/threonine-protein kinase 2 (Homo sapiens, UniProt Q5S007); experiment: Inhibition of LRRK2 in human AHE cells assessed as reduction in Ser935 phosphorylation; assay type: cell-based, Lymphoblastoid cell
Leucine-rich repeat serine/threonine-protein kinase 2, sequence (Q5S007 whole entry, the tested form may be a part): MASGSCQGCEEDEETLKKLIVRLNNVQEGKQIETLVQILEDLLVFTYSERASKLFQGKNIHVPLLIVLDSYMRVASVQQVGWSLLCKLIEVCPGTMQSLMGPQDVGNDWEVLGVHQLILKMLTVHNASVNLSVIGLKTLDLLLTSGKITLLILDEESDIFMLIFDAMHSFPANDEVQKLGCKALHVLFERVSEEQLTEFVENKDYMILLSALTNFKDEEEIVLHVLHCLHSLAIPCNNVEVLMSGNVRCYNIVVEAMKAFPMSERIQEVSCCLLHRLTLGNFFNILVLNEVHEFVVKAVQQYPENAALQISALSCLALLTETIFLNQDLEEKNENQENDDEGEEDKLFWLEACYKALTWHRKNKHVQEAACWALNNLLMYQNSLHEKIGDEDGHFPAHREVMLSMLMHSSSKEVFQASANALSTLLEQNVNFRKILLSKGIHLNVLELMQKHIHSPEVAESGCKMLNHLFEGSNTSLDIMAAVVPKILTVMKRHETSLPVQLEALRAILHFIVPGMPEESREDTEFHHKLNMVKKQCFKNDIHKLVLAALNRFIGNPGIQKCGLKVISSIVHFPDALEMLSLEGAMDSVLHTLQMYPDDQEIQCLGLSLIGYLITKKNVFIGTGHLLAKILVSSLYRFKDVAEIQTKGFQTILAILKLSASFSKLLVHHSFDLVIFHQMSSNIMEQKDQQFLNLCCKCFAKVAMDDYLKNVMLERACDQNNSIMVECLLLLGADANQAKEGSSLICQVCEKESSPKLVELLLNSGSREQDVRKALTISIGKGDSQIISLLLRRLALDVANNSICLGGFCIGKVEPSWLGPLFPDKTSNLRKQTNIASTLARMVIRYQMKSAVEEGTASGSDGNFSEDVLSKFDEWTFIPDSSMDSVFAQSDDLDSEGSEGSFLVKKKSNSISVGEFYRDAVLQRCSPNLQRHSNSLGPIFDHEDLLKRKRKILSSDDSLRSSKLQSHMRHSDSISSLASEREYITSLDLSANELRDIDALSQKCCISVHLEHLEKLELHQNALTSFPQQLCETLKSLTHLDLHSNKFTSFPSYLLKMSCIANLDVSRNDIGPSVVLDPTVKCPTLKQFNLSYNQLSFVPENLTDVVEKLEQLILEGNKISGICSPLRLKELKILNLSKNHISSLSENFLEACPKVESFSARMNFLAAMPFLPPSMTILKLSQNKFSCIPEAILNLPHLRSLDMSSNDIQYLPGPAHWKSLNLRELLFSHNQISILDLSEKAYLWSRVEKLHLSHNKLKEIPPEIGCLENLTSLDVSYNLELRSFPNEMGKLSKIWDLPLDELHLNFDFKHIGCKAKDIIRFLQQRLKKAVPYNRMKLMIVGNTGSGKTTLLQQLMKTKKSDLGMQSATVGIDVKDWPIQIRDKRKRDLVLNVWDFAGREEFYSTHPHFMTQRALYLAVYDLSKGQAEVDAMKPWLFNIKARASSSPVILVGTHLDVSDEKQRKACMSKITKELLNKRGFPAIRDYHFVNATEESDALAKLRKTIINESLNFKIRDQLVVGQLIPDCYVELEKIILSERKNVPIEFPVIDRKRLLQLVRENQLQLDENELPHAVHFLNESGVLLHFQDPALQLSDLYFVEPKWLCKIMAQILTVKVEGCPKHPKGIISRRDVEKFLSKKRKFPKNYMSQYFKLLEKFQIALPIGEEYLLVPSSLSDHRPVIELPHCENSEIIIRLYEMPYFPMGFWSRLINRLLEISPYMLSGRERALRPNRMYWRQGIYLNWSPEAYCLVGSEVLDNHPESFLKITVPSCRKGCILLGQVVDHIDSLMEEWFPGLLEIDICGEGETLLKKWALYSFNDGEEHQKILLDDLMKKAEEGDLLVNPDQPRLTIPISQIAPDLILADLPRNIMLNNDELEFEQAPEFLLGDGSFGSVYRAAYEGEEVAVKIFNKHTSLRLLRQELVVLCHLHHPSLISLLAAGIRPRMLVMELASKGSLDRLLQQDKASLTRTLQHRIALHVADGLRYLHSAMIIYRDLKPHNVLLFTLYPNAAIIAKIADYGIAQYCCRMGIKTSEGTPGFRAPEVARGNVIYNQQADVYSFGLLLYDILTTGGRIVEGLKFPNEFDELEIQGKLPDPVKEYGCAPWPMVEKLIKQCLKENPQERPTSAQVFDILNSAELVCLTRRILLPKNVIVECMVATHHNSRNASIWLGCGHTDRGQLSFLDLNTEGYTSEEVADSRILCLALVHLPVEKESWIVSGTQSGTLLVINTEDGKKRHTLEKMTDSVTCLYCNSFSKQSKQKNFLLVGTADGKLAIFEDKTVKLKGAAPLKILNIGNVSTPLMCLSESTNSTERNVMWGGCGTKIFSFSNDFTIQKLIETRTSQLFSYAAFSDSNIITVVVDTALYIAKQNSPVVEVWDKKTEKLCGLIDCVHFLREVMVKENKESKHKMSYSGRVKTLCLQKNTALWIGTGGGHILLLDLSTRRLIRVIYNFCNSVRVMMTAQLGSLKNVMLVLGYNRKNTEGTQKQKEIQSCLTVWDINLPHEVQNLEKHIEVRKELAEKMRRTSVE

[19] = molecular target: Dual specificity tyrosine-phosphorylation-regulated kinase 2 (Homo sapiens) (UniProt Q92630); experiment: Inhibition of wild-type human full length DYRK2 (M1 to S528 residues) expressed in mammalian expression system assessed as residual activity at 1 uM by Kinomescan method relative to control
Dual specificity tyrosine-phosphorylation-regulated kinase 2 (Homo sapiens), sequence (Q92630 whole entry, the tested form may be a part): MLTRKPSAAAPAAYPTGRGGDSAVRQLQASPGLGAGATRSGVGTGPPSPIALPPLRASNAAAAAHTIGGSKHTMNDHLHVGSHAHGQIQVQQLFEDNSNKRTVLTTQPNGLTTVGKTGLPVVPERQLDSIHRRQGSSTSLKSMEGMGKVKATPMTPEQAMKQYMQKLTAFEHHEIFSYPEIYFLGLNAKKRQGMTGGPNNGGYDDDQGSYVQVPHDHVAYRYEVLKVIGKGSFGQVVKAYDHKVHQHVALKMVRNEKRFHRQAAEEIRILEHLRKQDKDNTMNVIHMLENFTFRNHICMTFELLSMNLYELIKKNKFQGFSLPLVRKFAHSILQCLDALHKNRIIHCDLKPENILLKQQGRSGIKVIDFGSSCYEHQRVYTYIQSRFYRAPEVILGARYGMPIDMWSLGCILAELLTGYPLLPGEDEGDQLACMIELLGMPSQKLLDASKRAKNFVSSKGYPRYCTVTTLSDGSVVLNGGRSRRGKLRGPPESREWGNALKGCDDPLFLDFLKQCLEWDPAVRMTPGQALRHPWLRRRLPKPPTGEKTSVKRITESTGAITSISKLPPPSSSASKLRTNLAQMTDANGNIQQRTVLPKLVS

[20] = molecular target: Calcium/calmodulin-dependent protein kinase type 1G (Homo sapiens) (UniProt Q96NX5); experiment: Inhibition of wild-type human partial length CAMK1G (M1 to A342 residues) expressed in bacterial expression system assessed as residual activity at 1 uM by Kinomescan method relative to control

Casein kinase II subunit alpha (Homo sapiens), sequence (P68400 whole entry, looked up, the tested form may be a part): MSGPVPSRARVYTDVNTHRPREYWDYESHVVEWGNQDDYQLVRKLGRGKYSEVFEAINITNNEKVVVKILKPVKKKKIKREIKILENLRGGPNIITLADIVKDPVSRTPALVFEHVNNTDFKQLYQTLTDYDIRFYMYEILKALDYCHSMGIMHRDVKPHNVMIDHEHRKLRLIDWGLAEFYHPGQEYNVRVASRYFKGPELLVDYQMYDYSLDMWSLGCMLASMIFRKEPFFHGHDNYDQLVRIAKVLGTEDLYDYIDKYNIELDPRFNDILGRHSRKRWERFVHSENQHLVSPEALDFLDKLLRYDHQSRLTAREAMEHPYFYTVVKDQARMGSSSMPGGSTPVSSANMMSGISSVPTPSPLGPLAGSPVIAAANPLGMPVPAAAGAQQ

Which Activity [1] does the source give for `CCOc1nc(Nc2ccc(C(=O)N3CCOCC3)cc2OC)nc2[nH]ccc12` here?
Its Activity is 79.9%.

What about the Activity [2] of the same compound?
The Activity was 96.3%.

And the Activity [3]?
The Activity was 81.8%.

What about the Activity [4] of the same compound?
The Activity was 86.3%.

What about the Activity [5] of the same compound?
Its Activity is 84.6%.

And the Activity [6]?
The Activity was 101%.

And the Activity [7]?
Its Activity is 100%.

What about the Activity [8] of the same compound?
Its Activity is 98.5%.

And the Activity [9]?
The Activity was 95%.

And the IC50 (Cytochrome P450 3A4)?
The IC50 was 158 µM.

And the Activity [10]?
The Activity was 88.7%.

What about the Activity [11] of the same compound?
Its Activity is 104%.

And the Papp [12]?
Its Papp is 48 ×10⁻⁶ cm/s.

What about the Activity [13] of the same compound?
The Activity was 99.9%.

What about the Activity [14] of the same compound?
Its Activity is 98.4%.

What about the Activity [15] of the same compound?
The Activity was 101%.

And the fraction unbound [16]?
The fraction unbound was 0.031.

And the Activity [17]?
Its Activity is 137%.

What about the IC50 [18] of the same compound?
The IC50 was 0.0316 µM.

And the Activity [19]?
Its Activity is 81.3%.

What about the Activity [20] of the same compound?
The Activity was 106%.
